One experiment deals with hES cells. Put plainly: Direct observation of hES colonies in serum-depleted medium (Example 4). Format: cell-based, human. The procedure:
(A) hES cells grown with feeder, before the depletion in serum. (B) hES cells grown without serum after 8 days (B, C) and 12 days (D, E), in absence (B, D) or presence of S1P (C, E, 10 μM).
For direct observation, hES-3 cells were coated into 12-well plates (3 colonies per well), with or without mouse embryonic feeders (MEFs). The day following the plating, cells were incubated with the different agents in serum free medium containing insulin, transferring and selenium. Media was changed the 2nd day and then every 2 days.

The subject of experiment [1] is ERKs (Erk1 and Erk2) in hES cells. The experiment is described as follows: ERK phosphorylation Western blot in hES cells (Example 5). The experiment is classed as cell-based, human. The procedure: Western blots experiments were performed using protein lysate from hES cells. (A) Cells were pre-treated or not with U0126 (30 μM, 1 hr) and incubated for 5 min in the absence (C, control) or presence of S1P (10 μM). (B) Cells were incubated for different time periods in the absence or presence of S1P (10 μM). (C) Cells were incubated for 5 min with various concentrations of S1P. The phosphorylation of Erk1 and Erk2 (P-Erk1 and P-Erk2) was assessed by immunoblotting with a polyclonal anti-active MAP kinase as described in Materials and Methods. After a stripping procedure, the same blots reprobed with a monoclonal anti-MAP kinase, allowed the detection of Erk1 and Erk2.
For immunoblot analysis, cells were transferred into 24 well plates (8 colonies per well) without MEFs, and 24 hr later, were grown in the absence of serum for 18 hrs.
In some experiments, cells were pre-treated for 1 hr with U0126 (30 μM) or for 18 hrs with PTX (100 μg/ml).
hES3 cells were lysed following removal of the supernatants by addition of a reducing loading buffer (2% SDS, 62.5 mM Tris pH 6.8, 0.1 M DTT, 0.01% bromophenol blue) containing 1 mM sodium orthovanadate. Samples were boiled for 10 min and centrifuged at 13000 g for 15 min, and protein lysates (approx. 80 μg) were separated by SDS-polyacrylamide gel electrophoresis (10% polyacrylamide, w/v). Proteins were transferred to nitrocellulose (Hybond-ECL, Amersham) and immunoblotting was carried out with rabbit polyclonal anti-active mitogen-activated protein (MAPK) antibodies raised against a dually phosphorylated MAPK peptide (Promega, Madison, Wis., USA). Peroxidase-coupled secondary antibody (Dako) was detected by exposure of autoradiographic films in the presence of a chemiluminescent detection reagent (ECL, Amersham). Stripping of antibodies was achieved by incubating the membrane during 30 min at 50° C. in a buffer containing 100 mM mercaptoethanol, 2% SDS, 62.5 mM Tris-HCl pH 6.7. The membrane was then reprobing with rabbit polyclonal anti-ERK1/2 antibodies (Promega), and then with peroxidase-coupled secondary antibodies (Dako).
A general note: Immunoblotting shows a protein as a band on a membrane.

The structures appear in SMILES notation.

The record followed here is US7604990B2, “Methods of regulating differentiation in stem cells” (ES Cell International Pte Ltd., priority 2002, dated 2009).

`CCCCCCCCCCCCC/C=C/[C@@H](O)[C@@H](N)COP(=O)(O)O` [S1P, Sphingosine-1-phosphate]: in the experiment on hES cells (S1P 10 μM 8 days, LPA up to 50 μM 12 days), the “growth/differentiation of hES colonies on MEFs” value was “more compact and less differentiated”. Also, the “effect on cell differentiation, hES cells grown without MEFs” value in the experiment on hES cells (without MEFs, n=3) is given as “inhibitory effect”. In addition, the “concentration dependence of ERKs stimulation” value in experiment [1] (5 min, various concentrations of S1P) was “concentration dependant manner”. For the same molecule, in experiment [1] (S1P 10 μM), the “duration of ERKs stimulation” value is “at least 60 min”. For the same molecule, the “phosphorylation of ERKs” value in experiment [1] (hES cells, 5 min, S1P 10 μM) was “stimulated the phosphorylation of ERKs”.
